Measurements from patent publication US20150072968A1, “Treating Infections with Ceftolozane/Tazobactam in Subjects Having Impaired Renal Function” (Calixa Therapeutics, Inc., priority 2013, published 2015).
One block for each molecule: values may come before it.

Tests used:
[1] = system: gram-negative pathogens; assay: Baseline susceptibility testing of cUTI isolates, CLSI broth microdilution; type: cell-based; details: mMITT population; ceftolozane/tazobactam breakpoint ≦8 mg/1, levofloxacin CLSI criteria
Description: (§1) 764 isolates of Gram-negative aerobic organisms were isolated from 800 patients in the microbiological modified intent-to-treat population (enrolled in 20 countries in Eastern Europe, North America, South America and 5 countries outside of these regions). Susceptibility (S) testing was performed with ceftolozane/tazobactam at a fixed 4 μg/mL of tazobactam and 10 antibiotic comparators using CLSI broth microdilution methods. ESBL enzymes were identified by PCR.

[2] = system: E. coli; assay: as above; type: cell-based, Escherichia coli
Description: as §1

[3] = system: complicated urinary tract infections (including pyelonephritis); assay: Phase 3 study of complicated urinary tract infections, composite microbiological and clinical cure at TOC visit; type: in vivo, human; details: for Composite Cure Rate at TOC: levofloxacin-resistant population
From the text: (§2) The primary efficacy endpoint was the composite microbiological and clinical cure response at the test-of-cure (TOC) visit in the microbiologically modified intent-to-treat (mMITT) population, which included all patients who received study medication and had at least 1 baseline uropathogen. The key secondary efficacy endpoint was the composite microbiological and clinical cure response at the TOC visit in the microbiologically evaluable (ME) population, which included protocol-adherent mMITT patients with a urine culture at the TOC visit.

[4] = system: P. aeruginosa; assay: Baseline susceptibility testing of cUTI isolates, CLSI broth microdilution; type: cell-based, Pseudomonas aeruginosa; details: comparators
Description: as §1

[5] = human, in vivo, 7 days
[6] = system: Enterobacteriaceae; assay: Phase 3 cUTI study, per pathogen microbiological eradication; type: in vivo; details: levofloxacin-resistant population, ME
From the text: as §2

[7] = system: Escherichia coli; assay: as above; type: in vivo; details: levofloxacin-resistant population, ME
From the text: as §2

[8] = system: Pseudomonas aeruginosa; assay: as above; type: in vivo; details: levofloxacin-resistant population, ME
From the text: as §2

[9] = system: Klebsiella pneumoniae; assay: as above; type: in vivo; details: levofloxacin-resistant population, ME
From the text: as §2

[10] = system: Klebsiella pneumoniae (KPN); assay: Baseline susceptibility testing of cUTI isolates, CLSI broth microdilution; type: cell-based
Description: as §1

[11] = Phase 1 single dose PK of 750 mg ceftolozane/tazobactam in severe renal impairment and ESRD on hemodialysis (Example 8); type: in vivo, human
Description: This was a Phase 1, multicenter, prospective, open-label study of 750 mg ceftolozane/tazobactam (as CXA-201) administered IV in male and female adult subjects with severe renal impairment (estimated CLCR<30 mL/min) and subjects with end-stage renal disease (ESRD) on hemodialysis (HD). The primary objective of the study was to determine the PK profile of ceftolozane/tazobactam in subjects with severe renal impairment and subjects with ESRD on HD and to determine the effect of HD on the clearance of ceftolozane/tazobactam.
Subjects with severe renal impairment received a single IV 1-hour infusion of 750 mg ceftolozane/tazobactam on Day 1. […] Subjects in this cohort received an IV dose of 750 mg ceftolozane/tazobactam as a 1 hour infusion immediately after their first HD session on Day 1 (postdialysis, approximately 72 hours prior to the next HD session) and a second dose of ceftolozane/tazobactam approximately 2 hours before their second HD session on Day 4 of the study. Infusion of ceftolozane/tazobactam was completed approximately 1 hour before the start of HD.
Subjects in both cohorts had urine (if not anuric) and plasma samples collected for determination of levels of ceftolozane, tazobactam and the M1 metabolite of tazobactam; subjects in the ESRD on HD cohort also had dialysate fluid samples collected for PK assessment. Plasma, urine, and dialysate levels of ceftolozane, tazobactam, and its metabolite M1 collected over a prespecified interval were determined by LC/MS/MS assay.
All subjects underwent hemodialysis for 3 to 4 hours using a high-flux membrane (either 1.4, 1.8, or 1.9 m^2) on Days 1, 4, and 6 as scheduled. Average blood flow rate was 264 to 600 mL/min and average dialysis flow rate was either 600 or 800 mL/min for all subjects with ESRD.

[12] = system: Bacteroides vulgatus; assay: Phase 3 cIAI study, per pathogen clinical cure; type: in vivo; details: ME population
Description: (§3) A total of 979 adults hospitalized with complicated intra-abdominal infections were randomized and received study medications in a multinational, double-blind study comparing CXA-201 (1.5 g IV every 8 hours) plus metronidazole (500 mg IV every 8 hours) to meropenem (1 g IV every 8 hours) for 4 to 14 days of therapy. Complicated intra-abdominal infections included appendicitis, cholecystitis, diverticulitis, gastric/duodenal perforation, perforation of the intestine, and other causes of intra-abdominal abscesses and peritonitis. The primary efficacy endpoint was clinical response at the test-of-cure (TOC) visit in the microbiological intent-to-treat (MITT) population, which included all patients who had at least 1 baseline intra-abdominal pathogen. The key secondary efficacy endpoint was clinical response at the TOC visit in the microbiologically evaluable (ME) population, which included all protocol-adherent MITT patients.

[13] = system: Bacteroides ovatus; assay: Phase 3 cIAI study, per pathogen clinical cure; type: in vivo; details: ME population
Description: as §3

[14] = system: Streptococcus salivarius; assay: Phase 3 cIAI study, per pathogen clinical cure; type: in vivo; details: ME population
Description: as §3

[15] = system: Escherichia coli; assay: Phase 3 cIAI study, per pathogen clinical cure; type: in vivo; details: ME population
Description: as §3

[16] = system: Proteus mirabilis; assay: Phase 3 cIAI study, per pathogen clinical cure; type: in vivo; details: ME population
Description: as §3

[17] = system: Klebsiella oxytoca; assay: Phase 3 cIAI study, per pathogen clinical cure; type: in vivo; details: ME population
Description: as §3

[18] = system: Bacteroides thetaiotaomicron; assay: Phase 3 cIAI study, per pathogen clinical cure; type: in vivo; details: ME population
Description: as §3

[19] = system: Aerobic Gram-positive; assay: Phase 3 cIAI study, per pathogen clinical cure; type: in vivo; details: ME population
Description: as §3

[20] = system: Anaerobic Gram-negative; assay: Phase 3 cIAI study, per pathogen clinical cure; type: in vivo; details: ME population
Description: as §3

[21] = system: Pseudomonas aeruginosa; assay: Phase 3 cIAI study, per pathogen clinical cure; type: in vivo; details: ME population
Description: as §3

[22] = system: Enterobacter cloacae; assay: Phase 3 cIAI study, per pathogen clinical cure; type: in vivo; details: ME population
Description: as §3

[23] = system: Klebsiella pneumoniae; assay: Phase 3 cIAI study, per pathogen clinical cure; type: in vivo; details: ME population
Description: as §3

[24] = system: Streptococcus anginosus; assay: Phase 3 cIAI study, per pathogen clinical cure; type: in vivo; details: ME population
Description: as §3

[25] = system: Bacteroides fragilis; assay: Phase 3 cIAI study, per pathogen clinical cure; type: in vivo; details: ME population
Description: as §3

[26] = system: Aerobic Gram-negative; assay: Phase 3 cIAI study, per pathogen clinical cure; type: in vivo; details: ME population
Description: as §3

[27] = system: Streptococcus constellatus; assay: Phase 3 cIAI study, per pathogen clinical cure; type: in vivo; details: ME population
Description: as §3

[28] = system: complicated intra-abdominal infections; assay: Phase 3 study of complicated intra-abdominal infections, clinical response at TOC visit; type: in vivo, human
Description: as §3

[29] = ESRD on HD, second IV infusion of 750 mg on Day 4 (during HD)
[30] = ESRD on HD, second infusion Day 4, start of infusion to end of dialysis
[31] = severe renal impairment, single IV 1-hour infusion of 750 mg ceftolozane/tazobactam

SMILES: C[C@H]1COc2c(N3CCN(C)CC3)c(F)cc3c(=O)c(C(=O)O)cn1c23 [Levofloxacin]
gram-negative pathogens isolated at baseline susceptible [1]: 70.7% | MIC50 ([2]; E. coli baseline isolates): 0.03 mg/1 | MIC90 ([2]; E. coli baseline isolates): > 4 mg/1 | E. coli isolates susceptible ([2]; mMITT population, regardless of ESBL phenotype): 74.1% | Composite microbiological and clinical cure rate at TOC visit ([3]; ME population): 266/353 (75.4) % | Composite Cure Rate at TOC ([3]; ME): 43.4% | Composite Cure Rate at TOC ([3]; mMITT): 39.3% | Composite microbiological and clinical cure rate at TOC visit ([3]; mMITT population): 275/402 (68.4) % | susceptibility of isolates [4]: 35.0% | adverse event gastrointestinal symptoms [5]: 11.4% | adverse event headache [5]: 4.9% | incidence of treatment-limiting adverse events [5]: < 2% | patients with adverse events [5]: 34.4% | Per-pathogen Microbiological Eradication Rate at TOC [6]: 45.2% | Per-pathogen Microbiological Eradication Rate at TOC [7]: 44.1% | Per-pathogen Microbiological Eradication Rate at TOC [8]: 37.5 (3/8) % | Per-pathogen Microbiological Eradication Rate at TOC [9]: 30.0 (3/10) %

SMILES: CC(C)(O/N=C(\C(=O)N[C@@H]1C(=O)N2C(C(=O)[O-])=C(C[n+]3ccccc3)CS[C@H]12)c1csc(N)n1)C(=O)O [ceftazidime]
isolates inhibited at ≦8 μg/mL [10]: 58.2% | susceptibility of isolates [4]: 40.0%

SMILES: NCC[C@H](O)C(=O)N[C@@H]1C[C@H](N)[C@@H](O[C@H]2O[C@H](CN)[C@@H](O)[C@H](O)[C@H]2O)[C@H](O)[C@H]1O[C@H]1O[C@H](CO)[C@@H](O)[C@H](N)[C@H]1O [amikacin]
susceptibility of isolates [4]: 55.0%

SMILES: CO/N=C(\C(=O)N[C@@H]1C(=O)N2C(C(=O)[O-])=C(C[N+]3(C)CCCC3)CS[C@H]12)c1csc(N)n1 [cefepime]
susceptibility of isolates [4]: 50.0%

SMILES: C[C@@H](O)[C@H]1C(=O)N2C(C(=O)O)=C(SCCN=CN)C[C@H]12 [imipenem]
susceptibility of isolates [4]: 45.0%

Cmax, Mean (CV %) ([11]; ESRD on HD, Day 1 IV infusion of 750 mg (non-hemodialysis phase)): 10.0 (40) μg/mL | AUClast, Mean (CV %) ([11]; ESRD on HD, Day 1 IV infusion of 750 mg (non-hemodialysis phase), through 48 hours): 367 (42) μg·h/mL | Cmax, Mean (CV %) [11, 29]: 10.8 (46) μg/mL | tmax, Median (minimum, maximum) [11, 29]: 1.5 (0.5, 24.0) h | AUClast, Mean (CV %) ([11]; ESRD on HD, second IV infusion of 750 mg on Day 4 (during HD), through 44 hours): 176 (40) μg·h/mL | AUClast, Mean (CV %) ([11]; ESRD on HD, second infusion Day 4, approximately 6 hours from start of infusion to end of dialysis): 23.8 (44) μg·h/mL | Cmax, Mean (CV %) [11, 30]: 10.6 (49) μg/mL | t1/2, Mean (CV %) [11, 30]: 1.54 (48) h | tmax, Median (minimum, maximum) [11, 30]: 1.5 (0.5, 1.5) h | AUC∞, Mean (CV %) [11, 31]: 60.3 (30) μg·h/mL | t1/2, Mean (CV %) [11, 31]: 12.0 (29) h | Cmax, Mean (CV %) ([11]; severe renal impairment, single IV 1-hour infusion of 750 mg ceftolozane/tazobactam, plasma): 2.2 (20) μg/mL | AUClast, Mean (CV %) ([11]; severe renal impairment, single IV 1-hour infusion of 750 mg ceftolozane/tazobactam, plasma, through 48 hours): 53.7 (25) μg·h/mL | Exposure (AUC48h) After HD (Day 1), Median (Range) ([11]; subjects with ESRD): 389 (99.8 − 538) μg·h/mL | Exposure (AUC48h) During HD (Day 3), Median (Range) ([11]; subjects with ESRD): 182 (78 − 255) μg·h/mL | removed by dialysis ([11]; subjects with ESRD on HD): ~51% | AUC48h Ratio (Day 3:1), Median (Range) ([11]; subjects with ESRD, during HD vs after HD): 0.49 (0.38 − 0.78) | Percent Removed, Median (Range) ([11]; subjects with ESRD, hemodialysis): 51 (22 − 63) Percent
SMILES: C[C@](Cn1ccnn1)([C@@H](N)C(=O)O)S(=O)O [M1 Metabolite]

SMILES: C[C@@H](O)[C@H]1C(=O)N2C(C(=O)O)=C(S[C@@H]3CN[C@H](C(=O)N(C)C)C3)[C@H](C)[C@H]12 [Meropenem]
Per pathogen clinical cure rate [12]: 21/22 (95.5) % | Per pathogen clinical cure rate [13]: 42/42 (100) % | Per pathogen clinical cure rate [14]: 8/8 (100) % | Per pathogen clinical cure rate ([15]; Escherichia coli): 216/231 (93.5) % | Per pathogen clinical cure rate ([15]; Escherichia coli (CTX-M-14/15 ESBL-producing)): 7/9 (77.8) % | Per pathogen clinical cure rate ([15]; Escherichia coli (EBSL-producing)): 18/20 (90.0) % | Per pathogen clinical cure rate [16]: 9/10 (90.0) % | Per pathogen clinical cure rate [17]: 21/22 (95.5) % | Per pathogen clinical cure rate [18]: 40/43 (93.0) % | Per pathogen clinical cure rate [19]: 170/185 (91.9) % | Per pathogen clinical cure rate [20]: 132/137 (96.4) % | Per pathogen clinical cure rate [21]: 27/29 (93.1) % | Per pathogen clinical cure rate [22]: 22/22 (100) % | Per pathogen clinical cure rate ([23]; Klebsiella pneumonia): 22/25 (88.0) % | Per pathogen clinical cure rate ([23]; Klebsiella pneumoniae (CTX-M-15 ESBL-producing)): 7/9 (77.8) % | Per pathogen clinical cure rate ([23]; Klebsiella pneumoniae (ESBL-producing)): 3/4 (75.0) % | Per pathogen clinical cure rate [24]: 23/23 (100) % | Per pathogen clinical cure rate [25]: 56/57 (98.2) % | Per pathogen clinical cure rate [26]: 273/291 (93.8) % | Per pathogen clinical cure rate [27]: 20/23 (87.0) % | Clinical cure rate at TOC visit ([28]; ME population): 304/321 (94.7) % | Clinical cure rate at TOC visit ([28]; MITT population): 364/417 (87.3) %
